What was measured:
[1] = Ocular irritation after eye drops: ophthalmic observation and free protoporphyrin (FEP) in eye rinsing solution (ELISA); assay type: in vivo, SD rats; conditions: 2% eye drops (10 μl) twice a day for 7 days
Description: 2.1 Experimental aminals: SPF grade male SD rats, weighed 180-200 g, were used and adaptively fed for one week.
2.3 Experimental animal grouping: the animals were randomly divided into 3 groups (6 rats per group) of a negative control group (normal saline), a Compound 71 group and a Compound 8 group.
2.4 Administration method and sampling: 2% Compound (10 μl) dissolved in normal saline (after filtration) was dropped into the surface of each rat's eye with a pipette for 10 s. The eye drop was applied twice a day for a total of 7 days. Samples were taken at 1 and 16 hours after the second administration on Day 7 of administration to determine the ocular distribution concentration of the drug.
[…] The rinsing solution was frozen at −80° C. for subsequent detection of irritant inflammatory response on the surface of the bulbus oculi.
2.7.2 Result of measurement of secretion of porphyrin: it was further determined whether inflammation or bleeding in the eyes occurred after eye drops by ELISA essay of free protoporphyrin (FEP) in erythrocytes. As indicated by the results, the level of FEP in the sample of eye rinsing solution was at a low concentration level for the rats in both the test drug group and the negative control group. There was no significant difference (P>0.05).

human B1R = target: T1, human B1R (Homo sapiens, UniProt P46663); test: FLIPR calcium ion flux assay, inhibitory activity against human B1R; assay type: cell-based; conditions: HEK293 cells stably expressing human B1R; agonist [Lys-des-Arg9]-Bradykinin 4.6 nM (EC80); FLIPR method
T1 construct: host or cells: HEK293
T1 sequence (P46663 1-353): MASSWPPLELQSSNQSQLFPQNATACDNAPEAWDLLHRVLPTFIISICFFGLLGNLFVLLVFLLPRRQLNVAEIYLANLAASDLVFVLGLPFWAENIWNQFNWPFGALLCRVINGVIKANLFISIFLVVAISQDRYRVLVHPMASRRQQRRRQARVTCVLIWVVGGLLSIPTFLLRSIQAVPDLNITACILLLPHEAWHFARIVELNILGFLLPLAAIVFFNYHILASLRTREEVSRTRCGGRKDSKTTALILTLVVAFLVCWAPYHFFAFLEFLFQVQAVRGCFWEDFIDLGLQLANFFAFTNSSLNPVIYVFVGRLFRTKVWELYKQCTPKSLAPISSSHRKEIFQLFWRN
Procedure, shortened: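 HEK293 cells stably expressing human B1R, loaded with Fluo-4 Direct plus probenecid; compounds 9-point 1:5 series from 30 μM, duplicate, preincubated 10 min. Stimulation with [Lys-des-Arg9]-bradykinin at 4.6 nM final (EC80); peak fluorescence at 538 nm gave IC50.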

[2] = system: rat model of diabetic retinopathy; test: Rat model of diabetic retinopathy (STZ); assay type: in vivo, Wistar rats; conditions: for retinal leukocyte stasis, Leukocyte count: Concanavalin A/FITC, 14 days after intravitreal injection, compounds 0.25%, dexamethasone 0.1%; for number of leukocyte stasis in the retina (fluorescent staining, FIG. 8; in words) / retinal vascular penetration in rats (fluorescent staining, FIG. 6; in words): intraocular injection, versus model group
Description: 3.1 Laboratory animals: SPF-grade male Wistar rats, weighed 180-220 g.
3.3 Animal modeling and grouping: After one week of adaptive feeding, 134 male Wistar rats (weighed 220-260 g) were administered 65 mg/kg of STZ by one-time intraperitoneal injection to prepare a rat model of type I diabetic. The rats were fasting but water was allowable overnight for 15 h. The formulated STZ solution was intraperitoneally injected according to body weight. After 1 h, the diet was resumed and blood glucose was measured at 72 h. The successfully modeled diabetic rats (120 rats) were selected for continued feeding, and randomly divided into the following 6 groups according to blood glucose (20 rats per group), plus a group of normal rats with no STZ injected as a negative control group.
3.4 Administration: The rats continued to be fed until blood glucose was measured once before administration. After blood glucose reached the standard, drugs were intravitreally injected, and indexs were subsequently tested after 14 days. Blood glucose was measured once before sampling.
3.5 Evans blue staining method (7 groups, 6 rats per group): Evans blue was intravenously injected. 2 hours later, normal saline was perfused into the left ventricle. The retina was taken to compare between the stained area and the unstained area to detect retinal vascular permeability.
3.6 Retinal leukocyte stasis detection method (7 groups, 6 rats per group): PBS was perfused into the left ventricle for 1 min to remove red blood cells and other substances. Concanavalin A (FITC (Sigma, C7642) was perfused (20 μg/ml in PBS, 5 mg/kg) to mark adherent leukocytes. 4% PFA was perfused for 4 min for fixation. 1% Albumin (Sigma, A6414) (in PBS) was perfused for 1 min, and then PBS was perfused for 2 min. The retina was taken for retinal wholemount. Thereafter, the stasis of leukocytes on the vascular endothelium was observed under a fluorescence microscope. […]

IC50 (human B1R) [nM] | SMILES | FEP expression level in eye rinsing solution, Left eye ([1]; 1 h) [ng/mL] | FEP expression level in eye rinsing solution, Right eye ([1]; 1 h) [ng/mL] | FEP expression level in eye rinsing solution, Left eye ([1]; 16 h) [ng/mL] | FEP expression level in eye rinsing solution, Right eye ([1]; 16 h) [ng/mL] | retinal leukocyte stasis, Leukocyte count [2] | number of leukocyte stasis in the retina (fluorescent staining, FIG. 8; in words) [2] | retinal vascular penetration in rats (fluorescent staining, FIG. 6; in words) [2]
66.1 | CCOc1ccc(-c2ccc(NC(=O)N[C@H]3CC[C@H](C)CC3)cc2-c2nn[nH]n2)cn1 [Compound 71, 1-(4-(6-ethoxypyrid-3-yl)-3-(2H-tetrazol-5-yl)phenyl)-3-((trans)-4-methylcyclohexyl)urea] | 1.50 ± 0.02 | 1.54 ± 0.08 | 1.61 ± 0.06 | 1.55 ± 0.09 | 5.22 ± 1.13 | significantly reduced | significantly reduced
14.9 | CCOc1ccc(-c2c(F)cc(NC(=O)N3CCC(C(C)(C)C)CC3)cc2-c2nn[nH]n2)cn1 [Compound 8, 4-(tert-butyl)-N-(4-(6-ethoxypyrid-3-yl)-3-fluoro-5-(2H-tetrazol-5-yl)phenyl)piperidine-1-carboxamide] | 1.53 ± 0.03 | 1.45 ± 0.02 | 1.57 ± 0.08 | 1.57 ± 0.06 | 5.32 ± 1.38 | significantly reduced | significantly reduced
